For orientation: IC50 means the concentration that inhibits the measured activity by half.

In US8586591B2, “Aminopyrazine derivative and medicine” (Nippon Shinyaku Co., Ltd., priority 2009, dated 2013) one finds IC50 data, which are given here for 23 compounds.

For one test, the target named is T1, JAK2 tyrosine kinase (Homo sapiens, UniProt O60674).
T1 construct: purchased Carnabioscience Co
The test is described as follows: Test 1: inhibitory activity to JAK2 tyrosine kinase (ELISA). The class given is biochemical. Conditions: 25 μM ATP in substrate solution, 30° C. for 1 hour, n=2. An outline of the steps: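 This is an ELISA read at A450 (HRP anti-phosphotyrosine antibody, TMB) of biotin-peptide phosphorylation captured on streptavidin. Enzyme solution was 0.75 nM JAK2, and the substrate solution was 625 nM peptide with 25 μM ATP in Tris pH 7.5 buffer. The reaction ran 1 h at 30 °C with compounds in duplicate, and IC50 was fitted non-linearly.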

For a further test, the target named is T2, JAK3 tyrosine kinase (Homo sapiens, UniProt P52333).
T2 construct: purchased Carnabioscience Co
T2 sequence (P52333 1-1124): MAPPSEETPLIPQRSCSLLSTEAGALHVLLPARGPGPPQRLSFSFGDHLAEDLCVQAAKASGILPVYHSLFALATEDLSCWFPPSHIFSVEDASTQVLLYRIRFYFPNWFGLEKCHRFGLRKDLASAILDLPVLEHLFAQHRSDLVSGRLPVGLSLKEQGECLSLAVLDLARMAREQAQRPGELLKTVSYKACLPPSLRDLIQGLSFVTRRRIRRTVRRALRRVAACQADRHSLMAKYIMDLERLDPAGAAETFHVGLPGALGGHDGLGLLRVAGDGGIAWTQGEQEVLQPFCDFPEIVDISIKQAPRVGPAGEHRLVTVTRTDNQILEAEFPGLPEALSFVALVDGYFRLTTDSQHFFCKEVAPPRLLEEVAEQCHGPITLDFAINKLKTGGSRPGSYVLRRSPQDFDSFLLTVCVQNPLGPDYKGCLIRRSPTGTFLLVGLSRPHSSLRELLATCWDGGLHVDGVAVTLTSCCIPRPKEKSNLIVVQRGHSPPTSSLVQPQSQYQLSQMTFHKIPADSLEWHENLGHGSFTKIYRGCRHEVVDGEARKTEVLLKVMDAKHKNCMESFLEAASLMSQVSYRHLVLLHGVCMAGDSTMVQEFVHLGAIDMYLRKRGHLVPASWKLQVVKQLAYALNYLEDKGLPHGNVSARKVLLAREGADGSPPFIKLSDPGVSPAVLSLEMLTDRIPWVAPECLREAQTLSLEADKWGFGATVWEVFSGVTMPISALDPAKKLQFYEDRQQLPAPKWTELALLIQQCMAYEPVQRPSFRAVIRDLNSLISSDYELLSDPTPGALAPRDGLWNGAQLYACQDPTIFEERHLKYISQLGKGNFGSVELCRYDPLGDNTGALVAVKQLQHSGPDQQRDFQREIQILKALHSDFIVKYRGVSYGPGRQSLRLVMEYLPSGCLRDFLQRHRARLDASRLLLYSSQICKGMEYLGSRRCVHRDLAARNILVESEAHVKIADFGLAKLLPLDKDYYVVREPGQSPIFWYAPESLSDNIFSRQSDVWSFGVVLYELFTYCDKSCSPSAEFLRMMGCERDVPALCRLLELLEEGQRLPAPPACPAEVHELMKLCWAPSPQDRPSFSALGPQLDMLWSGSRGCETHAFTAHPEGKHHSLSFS
The test is described as follows: Test 1: inhibitory activity to JAK3 tyrosine kinase (ELISA). The class given is biochemical. To be noted: 25 μM ATP in substrate solution, 30° C. for 1 hour, n=2. An outline of the steps:
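ELISA of JAK3 kinase activity with absorbance read at 450 nm. Compounds were tested from DMSO dilution series at 100-fold the measurement concentrations (1000–0.01 μM), diluted up to 20 times in assay buffer, against a DMSO negative control. IC50 was estimated by non-linear regression of absorbance.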
For orientation: ELISA stands for enzyme-linked immunosorbent assay.

Molecules are shown by their SMILES. Where a name gives a salt, the structure may show the parent alone.

T1 sequence (O60674 whole entry): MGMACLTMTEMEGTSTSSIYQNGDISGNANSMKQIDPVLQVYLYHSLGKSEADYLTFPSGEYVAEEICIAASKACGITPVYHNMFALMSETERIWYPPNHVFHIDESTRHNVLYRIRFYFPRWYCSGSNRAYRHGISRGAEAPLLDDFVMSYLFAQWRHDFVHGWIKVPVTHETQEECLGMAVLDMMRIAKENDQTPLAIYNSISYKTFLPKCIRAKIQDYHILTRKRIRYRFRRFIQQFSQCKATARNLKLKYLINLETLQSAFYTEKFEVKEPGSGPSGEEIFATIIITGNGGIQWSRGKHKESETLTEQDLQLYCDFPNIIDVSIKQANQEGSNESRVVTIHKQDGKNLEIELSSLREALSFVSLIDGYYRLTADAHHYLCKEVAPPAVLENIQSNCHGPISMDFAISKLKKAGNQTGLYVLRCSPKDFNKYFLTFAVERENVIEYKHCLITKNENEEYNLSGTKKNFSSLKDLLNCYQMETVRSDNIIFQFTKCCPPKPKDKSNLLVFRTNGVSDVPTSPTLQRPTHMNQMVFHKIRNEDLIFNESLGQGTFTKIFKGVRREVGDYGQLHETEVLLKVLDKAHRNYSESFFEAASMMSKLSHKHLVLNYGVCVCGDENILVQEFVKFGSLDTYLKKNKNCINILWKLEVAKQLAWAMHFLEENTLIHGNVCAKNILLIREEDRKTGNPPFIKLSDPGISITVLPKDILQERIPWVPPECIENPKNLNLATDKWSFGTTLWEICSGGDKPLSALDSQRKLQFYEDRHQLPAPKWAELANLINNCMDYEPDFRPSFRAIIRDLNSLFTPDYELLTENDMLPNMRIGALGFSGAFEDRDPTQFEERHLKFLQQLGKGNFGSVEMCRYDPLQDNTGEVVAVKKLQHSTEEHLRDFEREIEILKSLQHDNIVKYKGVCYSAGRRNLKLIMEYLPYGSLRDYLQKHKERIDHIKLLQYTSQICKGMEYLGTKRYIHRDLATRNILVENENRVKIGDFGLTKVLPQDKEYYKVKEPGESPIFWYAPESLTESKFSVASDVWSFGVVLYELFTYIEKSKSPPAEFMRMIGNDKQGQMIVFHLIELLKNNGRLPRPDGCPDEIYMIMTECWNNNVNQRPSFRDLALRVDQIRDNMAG

As for `CC(Nc1cc(Nc2cnccn2)nc(N[C@@H](C)c2ccc(F)cc2)n1)c1cccnc1` (stereo partly drawn) [Example 104, (S)—N^2-[1-(4-Fluorophenyl)ethyl]-N^4-(pyrazin-2-yl)-N^6-[1-(pyridin-3-yl)ethyl]pyrimidine-2,4,6-triamine], the IC50 on JAK2 tyrosine kinase turned out to be 1 nM; against JAK3 tyrosine kinase, 39 nM.
For `C[C@H](Nc1nc(NCc2ccccn2)cc(Nc2cnccn2)n1)c1ccc(F)cc1` [Example 106, (S)—N^2-[1-(4-Fluorophenyl)ethyl]-N^4-(pyrazin-2-yl)-N^6-(pyridin-2-ylmethyl)pyrimidine-2,4,6-triamine] the same measures were 1.9 nM and 110 nM.
With `C[C@H](Nc1nc(NCc2cccnc2)cc(Nc2cnccn2)n1)c1ccc(F)cc1` [Example 107, (S)—N^2-[1-(4-Fluorophenyl)ethyl]-N^4-(pyrazin-2-yl)-N^6-(pyridin-3-ylmethyl)pyrimidine-2,4,6-triamine], the IC50 against JAK2 tyrosine kinase worked out at 0.77 nM; against JAK3 tyrosine kinase it was 56 nM.
`C[C@H](Nc1nc(NCc2ccncc2)cc(Nc2cnccn2)n1)c1ccc(F)cc1` [Example 108, (S)—N^2-[1-(4-Fluorophenyl)ethyl]-N^4-(pyrazin-2-yl)-N^6-(pyridin-4-ylmethyl)pyrimidine-2,4,6-triamine]: the results for the IC50 on JAK2 tyrosine kinase and against JAK3 tyrosine kinase were 1.1 nM and 56 nM, respectively.
For `C[C@H](Nc1nc(Nc2cnccn2)cc(N[C@@H](CO)C(N)=O)n1)c1ccc(F)cc1` [Example 109, (S)-2-{2-[(S)-1-(4-Fluorophenyl)ethylamino]-6-(pyrazin-2-ylamino)pyrimidin-4-ylamino}-3-hydroxypropanamide] the same measures were 2.4 nM and 130 nM.
For `C[C@H](Nc1nc(Nc2cnccn2)cc(N2C[C@H](O)[C@@H](O)C2)n1)c1ccc(F)cc1` [Example 110, (3S,4S)-1-{2-[(S)-1-(4-Fluorophenyl)ethylamino]-6-(pyrazin-2-ylamino)pyrimidin-4-yl}pyrrolidin-3,4-diol], the half-inhibitory concentration (IC50) on JAK2 tyrosine kinase was found to be 0.67 nM; against JAK3 tyrosine kinase, 44 nM.
In the case of `C[C@H](Nc1nc(Nc2cnccn2)cc(N2CCC3(CC2)OCCO3)n1)c1ccc(F)cc1` [Example 111, N^2-[(S)-1-(4-Fluorophenyl)ethyl]-N^4-(pyrazin-2-yl)-6-(1,4-dioxa-8-azaspiro[4.5]decan-8-yl)pyrimidine-2,4-diamine], the IC50 against JAK2 tyrosine kinase was determined as 1.6 nM; against JAK3 tyrosine kinase, 110 nM.
For `C[C@H](Nc1cc(-c2cnn(Cc3ccccc3)c2)cc(Nc2cnccn2)n1)c1ccc(F)cc1` [Example 113, (S)-4-(1-Benzyl-1H-pyrazol-4-yl)-N^2-[1-(4-fluorophenyl)ethyl]-N^6-(pyrazin-2-yl)pyridine-2,6-diamine] the same measures were 4.9 nM and 200 nM.
The corresponding values for `C[C@H](Nc1nc(Nc2cnccn2)cc(N2CCN(S(=O)(=O)c3ccccc3)CC2)n1)c1ccc(F)cc1` [Example 114, (S)—N^2-[1-(4-Fluorophenyl)ethyl]-6-[4-(phenylsulfonyl)piperazin-1-yl]-N^4-(pyrazin-2-yl)pyrimidine-2,4-diamine hydrochloride] are 4.8 nM and 66 nM.
For `C[C@H](Nc1cc(-c2ccc(C(N)=O)cc2)cc(Nc2cnccn2)n1)c1ccc(F)cc1` [Example 115, (S)-4-{2-[1-(4-Fluorophenyl)ethylamino]-6-(pyrazin-2-ylamino)pyridin-4-yl}benzamide dihydrochloride] the same measures were 2.3 nM and 210 nM.
`C[C@H](Nc1cc(-c2cc[nH]c2)cc(Nc2cnccn2)n1)c1ccc(F)cc1` [Example 116, (S)—N^2-[1-(4-Fluorophenyl)ethyl]-N^6-(pyrazin-2-yl)-4-(1H-pyrrol-3-yl)pyridine-2,6-diamine dihydrochloride]: the IC50 is 5.3 nM against JAK2 tyrosine kinase and 340 nM on JAK3 tyrosine kinase.
`C[C@H](Nc1cccc(Nc2cnccn2)n1)c1ccc(F)cc1` [Example 117, (S)—N^2-[1-(4-Fluorophenyl)ethyl]-N^6-(pyrazin-2-yl)pyridine-2,6-diamine dihydrochloride]: the values for the 50% inhibitory concentration (IC50) against JAK2 tyrosine kinase and against JAK3 tyrosine kinase were 2.7 nM and 190 nM, respectively.
The corresponding values for `Cc1cn(-c2cc(Nc3cnccn3)nc(N[C@@H](C)c3ccc(F)cc3)n2)cn1` [Example 118, (S)—N^2-[1-(4-Fluorophenyl)ethyl]-6-(4-methyl-1H-imidazol-1-yl)-N^4-(pyrazin-2-yl)pyrimidine-2,4-diamine hydrochloride] are 1.6 nM and 290 nM.
For `COc1ccc(-c2cc(Nc3cnccn3)nc(N[C@@H](C)c3ccc(F)cc3)c2)cc1` [Example 119, (S)—N^2-[1-(4-Fluorophenyl)ethyl]-4-(4-methoxyphenyl)-N^6-(pyrazin-2-yl)pyridine-2,6-diamine hydrochloride], the IC50 is 28 nM against JAK2 tyrosine kinase and 1600 nM at JAK3 tyrosine kinase.
The corresponding values for `C[C@H](Nc1cc(-c2ccc(F)cc2)cc(Nc2cnccn2)n1)c1ccc(F)cc1` [Example 120, (S)-4-(4-Fluorophenyl)-N^2-[1-(4-fluorophenyl)ethyl]-N^6-(pyrazin-2-yl)pyridine-2,6-diamine hydrochloride] are 23 nM and 1700 nM.
The corresponding values for `Cc1cc(Nc2cnccn2)nc(N[C@@H](C)c2ccc(F)cc2)c1` [Example 121, (S)—N^2-[1-(4-Fluorophenyl)ethyl]-4-methyl-N^6-(pyrazin-2-yl)pyridine-2,6-diamine hydrochloride] are 2.7 nM and 170 nM.
The corresponding values for `C[C@H](Nc1nc(Nc2cnccn2)cc(N2CCC(C(=O)NS(C)(=O)=O)CC2)n1)c1ccc(F)cc1` [Example 122, (S)-1-{2-[1-(4-Fluorophenyl)ethylamino]-6-(pyrazin-2-ylamino)pyrimidin-4-yl}-N-(methylsulfonyl)piperidine-4-carboxamide] are 0.4 nM and 30 nM.
With `C[C@H](Nc1cc(-c2ccoc2)cc(Nc2cnccn2)n1)c1ccc(F)cc1` [Example 123, (S)—N^2-[1-(4-Fluorophenyl)ethyl]-4-(furan-3-yl)-N^6-(pyrazin-2-yl)pyridine-2,6-diamine], the IC50 against JAK2 tyrosine kinase is 5.4 nM; on JAK3 tyrosine kinase, 330 nM.
The corresponding values for `C[C@H](Nc1cc(N2CCN(S(C)(=O)=O)CC2)cc(Nc2cnccn2)n1)c1ccc(F)cc1` [Example 124, (S)—N^2-[1-(4-Fluorophenyl)ethyl]-4-[4-(methylsulfonyl)piperazin-1-yl]-N^6-(pyrazin-2-yl)pyridine-2,6-diamine hydrochloride] are 1.3 nM and 66 nM.
In the case of `C[C@H](Nc1cc(N2CCC(O)(CO)CC2)cc(Nc2cnccn2)n1)c1ccc(F)cc1` [Example 125, (S)-1-{2-[1-(4-Fluorophenyl)ethylamino]-6-(pyrazin-2-ylamino)pyridin-4-yl}-4-(hydroxymethyl)piperidin-4-ol], the IC50 stood at 1.6 nM against JAK2 tyrosine kinase and 130 nM against JAK3 tyrosine kinase.
The corresponding values for `C[C@H](Nc1cc(-c2ccc(S(N)(=O)=O)cc2)cc(Nc2cnccn2)n1)c1ccc(F)cc1` [Example 126, (S)-4-{2-[1-(4-Fluorophenyl)ethylamino]-6-(pyrazin-2-ylamino)pyridin-4-yl}benzenesulfonamide] are 8.8 nM and 630 nM.
Take `C[C@H](Nc1cc(C(=O)NC2CCC2)cc(Nc2cnccn2)n1)c1ccc(F)cc1` [Example 168, (S)—N-Cyclobutyl-2-[1-(4-fluorophenyl)ethylamino]-6-(pyrazin-2-ylamino)isonicotinamide]: the IC50 was found to be 17 nM on JAK2 tyrosine kinase and 1300 nM against JAK3 tyrosine kinase.
For `CCCCNC(=O)c1cc(Nc2cnccn2)nc(N[C@@H](C)c2ccc(F)cc2)c1` [Example 169, (S)—N-Butyl-2-[1-(4-fluorophenyl)ethylamino]-6-(pyrazin-2-ylamino) isonicotinamide] the same measures were 3 nM and 500 nM.
